Laboratory results as given in US7795220B2, “Conformationally constrained parathyroid hormones with alpha-helix stabilizers” (The General Hospital Corporation, priority 2003, dated 2010).
Non-standard residues stand in square brackets, D forms with d. Residues, ends and D or L forms follow the SMILES beside them. hArg = N=C(N)NCCCC[C@H](N)C(=O)O; Ac5c = NC1(C(=O)O)CCCC1; Aib = CC(C)(N)C(=O)O

How the values were obtained:
hP1R-delNt = target: T1, hP1R-delNt (Homo sapiens, UniProt Q03431); experiment: cAMP stimulation in LdelNt-2 cells; assay type: cell-based
T1 construct: expressed in transfected cells
T1 sequence (Q03431 with tags, fused parts or gaps limits assumed): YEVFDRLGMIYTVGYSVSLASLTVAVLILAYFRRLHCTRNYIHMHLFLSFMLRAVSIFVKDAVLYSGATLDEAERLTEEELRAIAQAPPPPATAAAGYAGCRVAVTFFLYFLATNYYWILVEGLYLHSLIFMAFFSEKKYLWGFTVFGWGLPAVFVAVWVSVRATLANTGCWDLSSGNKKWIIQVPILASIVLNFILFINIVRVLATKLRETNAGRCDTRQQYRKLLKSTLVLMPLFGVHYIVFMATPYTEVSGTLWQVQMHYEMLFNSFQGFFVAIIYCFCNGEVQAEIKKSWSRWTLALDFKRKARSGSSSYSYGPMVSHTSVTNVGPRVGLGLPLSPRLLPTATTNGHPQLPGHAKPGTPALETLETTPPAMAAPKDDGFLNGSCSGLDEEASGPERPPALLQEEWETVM
Text: (§1) Cell Culture. The cell line HKRK-B28 (Takasu, H., et al., J. Bone Miner. Res. 14:11-20 (1999)) was derived from the porcine kidney cell line, LLC-PK1 by stable transfection with plasmid DNA encoding a recombinant P1R chimera comprised of the opposum P1R from the N-terminus to the mid region of TM3 and the rat P1R from the mid region of TM3 to the C-terminus. The surface density of the P1R in these cells is ˜280,000 receptors per cell. The clonal cell line LdelNt-2 was derived from LLC-PK, cells via stable transfection with a plasmid encoding P1R-delNt, a recombinant human PTH-1 receptor construct in which most of the amino-terminal extracellular domain is deleted. These cells, as well as COS-7 cells and SaOS-2-B10 cells, were cultured at […] in T-75 flasks ([…]) in Dulbecco's modified Eagle's medium (DMEM) supplemented with fetal bovine serum (10%), penicillin G (20 units/ml), streptomycin sulfate (20 μg/ml) and amphotericin B (0.05 μg/ml) in a humidified atmosphere containing 5% CO2. Stock solutions of EGTA/trypsin and antibiotics were from GLBCO; fetal bovine serum was from Hyclone Laboratories (Logan, Utah). COS-7 cells sub-cultured in 24-well plates were transfected with plasmid DNA (200 ng per well) encoding the wild-type human P1R or truncated human P1R deleted for residues (24-181) (Shimizu, M., et al., J. Biol. Chem. 275:21836-21843 (2000)) that was purified by cesium chloride/ethidium bromide density gradient centrifugation, and FuGENE 6 transfection reagent (Roche Indianapolis Ind.) according to the manufacturer's recommended procedure. All cells, in 24-well plates, were treated with fresh media and shifted to 33° C. for 12 to 24 h prior to assay.
(§2) cAMP Stimulation. Stimulation of cells with peptide analogs was performed in 24-well plates. Cells were rinsed with 0.5 mL of binding buffer (50 mM Tris-HCl, 100 mM NaCl, 5 mM KCl, 2 mM CaCl2, 5% heat-inactivated horse serum, 0.5% fetal bovine serum, adjusted to pH 7.5 with HCl) and treated with 200 μL of cAMP assay buffer (Delbecco's modified Eagle's medium containing 2 mM 3-isobutyl-1-methylxanthine, 1 mg/mL bovine serum albumin, 35 mM Hepes-NaOH, pH 7.4) and 100 μL of binding buffer containing varying amounts of peptide analog (final volume=300 μL). The medium was removed after incubation for 30 to 60 minutes at room temperature, and the cells were frozen on dry ice, lysed with 0.5 mL 50 mM HCl, and refrozen ([…]). The cAMP content of the diluted lysate was determined by radioimmunoassay. The EC50 response values were calculated using nonlinear regression (see below).
(§3) Data Calculation. Calculations were performed using Microsoft® Excel. Nonlinear regression analyses of binding and cAMP dose-response data were performed using the four-parameter equation: yp=Min+[(Max−Min)/(1+(IC50/x)^slope)]. The Excel Solver function was utilized for parameter optimization, as described previously (Carter, P. H., et al., Endocrinology 140: 4972-4981 (1999); Bowen, W. P., and Jerman, J. C., Trends in Pharmacol. Sci. 16: 413-417 (1995)). Differences between paired data sets were statistically evaluated using a one-tailed Student's t-test, assuming unequal variances for the two sets.
Agonist activities of selected analogs in cells expressing P1R-delNt were examined. This PTH-1 receptor construct lacks most of the N domain, but nevertheless mediates full agonist responses to N-terminally modified PTH analogs, and thus enables the relative roles of the receptor's N and J domains to the ligand interaction process to be evaluated. The clonal cell line LdelNT-2 was used, which was derived from LLC-PK, cells by stable transfection with a plasmid encoding the human P1R-delNt construct.

[1] = test system: P1R (recombinant P1R chimera) in HKRK-B28 cells; experiment: cAMP stimulation in HKRK-B28 cells; assay type: cell-based, opposum/rat chimera
Text: as §1, §2, §3

## CC[C@H](C)[C@H](NC(=O)[C@H](CCC(=O)O)NC(=O)C(C)(C)NC(=O)[C@@H](NC(=O)C1(N)CCCC1)C(C)C)C(=O)N[C@@H](CCC(N)=O)C(=O)N[C@@H](CC(C)C)C(=O)N[C@@H](CCSC)C(=O)N[C@@H](Cc1c[nH]cn1)C(=O)N[C@@H](CCC(N)=O)C(=O)N[C@@H](CCCCNC(=N)N)C(=O)N[C@@H](C)C(=O)N[C@@H](CCCCN)C(=O)N[C@@H](Cc1c[nH]c2ccccc12)C(N)=O [[Ac5c^1,Aib^3,M]PTH(1-14), [Ac5c^1,Aib^3,Gln^10,Har^11,Ala^12,Trp^14]PTH(1-14)NH2] (H-[Ac5c]V[Aib]EIQLMHQ[hArg]AKW-NH2)
hP1R-delNt
  EC50: 6.4 ± 2.3 nM
  increase in cAMP accumulation (Emax) over basal: 70 fold
  maximum cAMP response: 125±19 picomoles of cAMP per well
[1]
  potency for stimulating adenylyl cyclase relative to [Aib1,3,M]PTH(1-14): 2 fold
[1]; HKRK-B28 cells, intracellular cAMP accumulation, read-out: cAMP-stimulating potency (EC50)
  EC50: 0.9 nM
[1]; HKRK-B28 cells, peptide at 10 nM
  increase in cAMP levels relative to basal: 38 fold
